The values that follow come from ChEMBL document CHEMBL1129112, “Antioxidant and cholesterol lowering properties of 2,6-DI-t-butyl-4-[(dimethylphenylsilyl)methyloxy]phenol and derivatives: A new class of anti-atherogenic compounds” (1996).

Format in all cases: functional
The species named for test [1] is Oryctolagus cuniculus. The test is described as follows: Total cholesterol present in New Zealand white rabbits fed with control diet (100 g/day) for seven days.
Test [2] relates to Oryctolagus cuniculus. The test is described as follows: Low density lipoprotein (LDL) percent control of cholesterol after administration in rabbits. The arrangement: concentration or dose not given beside the values.
The species named for test [3] is Oryctolagus cuniculus. The test is described as follows: The compound was tested for antioxidant activity against serum thiobarbituric acid relative substances (TBARS),.
For test [4], the system named is Oryctolagus cuniculus. The test is described as follows: Total percent control of cholesterol after administration in rabbits. Set-up: concentration or dose not given beside the values.
The subject of test [5] is Oryctolagus cuniculus. The test is described as follows: High density lipoprotein (HDL) percent control of cholesterol after administration in rabbits. The arrangement: concentration or dose not given beside the values.
The species named for test [6] is Oryctolagus cuniculus. The test is described as follows: Tested for antioxidant activity against serum thiobarbituric acid relative substances (TBARS),.

Take `COc1ccccc1[Si](C)(C)COc1cc(C(C)(C)C)c(O)c(C(C)(C)C)c1`: in test [1], the Activity turned out to be 235 mg/dL. Besides, the Control in test [2] was determined as 61%; in test [3], 75%; in test [4] it was 77%; in test [5] it was 217%.
The molecule `CC(C)(C)c1cc(OC[Si](C)(C)c2ccc(Cl)cc2)cc(C(C)(C)C)c1O` yielded an Activity in test [1] of 247 mg/dL. Also, the Control stood at 89% in test [2], 57% in test [3], 87% in test [4] and 109% in test [5].
For the molecule `COc1ccc([Si](C)(C)COc2cc(C(C)(C)C)c(O)c(C(C)(C)C)c2)cc1`, the Activity in test [1] was determined as 153 mg/dL. In addition, the Control came out at 66% in test [2], 60% in test [3], 54% in test [4] and 123% in test [5].
Regarding `CC(C)(C)c1cc(SC[Si](C)(C)c2ccccc2)cc(C(C)(C)C)c1O`, the Control in test [6] is 17%; in test [2] it was 42%; in test [4] it was 52%; in test [5], 75%. Moreover, the Activity in test [1] worked out at 119 mg/dL.
In test [1], `CC(C)(C)c1cc(OC[Si](C)(C)c2ccccc2)cc(C(C)(C)C)c1O` had an Activity of 165 mg/dL. In addition, the Control in test [2] is on record as 69%; in test [3] it was 28%; in test [4] it was 72%; in test [5], 81%.
